Data published in article PMC8636514, “Therapeutic potential of TRPM8 antagonists in prostate cancer” (Scientific Reports, 2021).

Key:
[1] = test system: DU145 cells; assay: DNA synthesis (BrdU incorporation) in DU145 cells; assay type: cell-based; conditions: cycling or androgen-stimulated (10 nM R1881) cells, compound 1 µM
Protocol: (§1) Cells on coverslips were pulsed in vivo with BrdU (Sigma-Aldrich; at 100 μM, final concentration) and left unchallenged or challenged with 10 nM R1881 for 18 h, in the absence or presence of the indicated compounds. Cells were fixed, permeabilized, washed and the BrdU incorporation was analysed as reported. Nuclei were stained with Hoechst and cells on coverslips were scored by IF microscopy, using a DMLB Leica (Leica) fluorescent microscope, equipped with HCX PL Apo 63 × oil objective. Different fields from each coverslip were analyzed and BrdU incorporation was calculated by the formula: percentage of BrdU-positive cells = (No. of BrdU-positive cells/No. of total cells) × 100. Data in the graphs derive from at least 1000 scored cells for each coverslip. Representative images were captured using DC480 camera (Leica) and acquired using Leica Suite software. They are representative of three different experiments.

[2] = test system: PC3 cells; assay: Wound scratch assay in PC3 cells; assay type: cell-based; conditions: cycling or quiescent cells, 10 nM R1881, compound 1 µM
Protocol: (§2) In wound scratch analysis, 1.8 × 10^5 cells were seeded in a 24-well plate and made quiescent. Cells were then wounded using 10 µl sterile pipette tips and washed with PBS. They were left un-stimulated or stimulated for the indicated times, in the absence or presence of the selected compounds. To avoid cell proliferation, cytosine arabinoside (Sigma-Aldrich) at 50 μM (final concentration) was included in the cell medium. Different fields were analysed by contrast-phase microscopy, as below described in this section. Migration and invasion assays were done as reported. In migration assay, we used 3 × 10^4 cells in collagen pre-coated Boyden’s chambers with 8 μm polycarbonate membrane (Falcon). The indicated stimuli were added to the upper and the lower chambers. […] Migrating and invading cells were scored by fluorescence microscopy, as below described in this section.
(§3) In wound scratch assay, different fields were analysed using DMIRB inverted microscope (Leica) equipped with N-Plan 10 × objective (Leica), as reported. LNCaP organoids were analysed using the same microscope equipped with C-Plan 40 × or HCX PL Fluotar 63 × objectives (Leica). […] The relative organoid size was calculated using the same software and expressed as a fold increase over the basal organoid size (measured at 3th day). The wound gap was calculated using Image J Software and expressed as % of the decrease in the wound area. […]

[3] = test system: FAK, paxillin, ERK, RSK and Src tyrosine kinase; assay: Western blot of androgen-induced rapid actions in LNCaP cells (Fig. 6c); assay type: cell-based, human; conditions: 10 nM R1881, 10 min, compound 1 μM
Excerpt: (§4) All performed as reported. The mouse monoclonal anti-AR (441; Santa Cruz) antibody was used in Co-Ip or WB approaches. TRPM8 was detected using the rabbit polyclonal anti-TRPM8 (NBP1-97311; Novus Biological). […] The rabbit polyclonal anti-ERK (C-14; Santa Cruz), antibody was used to detect total ERK. FAK and P-Tyr397 FAK were detected using the mouse monoclonal anti-FAK (Clone 77/610077 BD Transduction Laboratories) or anti P-Tyr397 FAK (Clone 14/611722; BD Transduction Laboratories) antibodies, respectively. P-Tyr118 paxillin and total paxillin were detected using the rabbit polyclonal anti-P-Y118 (#2541, Cell Signaling) or the mouse monoclonal anti-paxillin (clone 349; BD Biosciences) antibodies, respectively. […] P-Tyr 416 Src and Src were detected using the rabbit monoclonal anti P-Tyr 416 Src (#6943; Cell Signaling) or the mouse monoclonal anti Src (Calbiochem) antibodies, respectively. ERα and ERβ were detected using the rabbit polyclonal anti-ERα (543; Santa Cruz) or anti-ERβ (Upstate Biotechnology, U.S.A.) antibodies. Cyclin D1, p27 and Cdk4 were stained using the mouse monoclonal anti-cyclin D1 (clone AM29; from Zymed Laboratories Inc.), the rabbit polyclonal anti-p27 (C-19; Santa Cruz) or anti Cdk-4 (c-22; Santa Cruz) antibodies, respectively. The mouse monoclonal anti-tubulin (Sigma-Aldrich) antibody was used to detect tubulin. The ECL system (GE Healthcare) was employed to reveal immune-reactive proteins. Densitometric analysis of WB was performed by using Image J Software (https://imagej.nih.gov/ij).

[4] = test system: DU-CaP cells; assay: DNA synthesis (BrdU incorporation) in DU-CaP cells; assay type: cell-based, human; conditions: 10 nM R1881, 18 h, compound 1 μM
Protocol: as §1

[5] = test system: LNCaP cells; assay: Invasion assay in Matrigel, LNCaP cells; assay type: cell-based, human; conditions: for androgen-induced invasion: 10 nM R1881, compound 1 μM; for invasion in the absence of hormone: compound 1 μM alone
Protocol: (§5) In wound scratch analysis, 1.8 × 10^5 cells were seeded in a 24-well plate and made quiescent. Cells were then wounded using 10 µl sterile pipette tips and washed with PBS. They were left un-stimulated or stimulated for the indicated times, in the absence or presence of the selected compounds. To avoid cell proliferation, cytosine arabinoside (Sigma-Aldrich) at 50 μM (final concentration) was included in the cell medium. Different fields were analysed by contrast-phase microscopy, as below described in this section. Migration and invasion assays were done as reported. In migration assay, we used 3 × 10^4 cells in collagen pre-coated Boyden’s chambers with 8 μm polycarbonate membrane (Falcon). The indicated stimuli were added to the upper and the lower chambers. Cytosine arabinoside (at 50 μM) was included in the cell medium. After 7 h, non-migrating cells from the membrane upper surface were removed using a sterile cotton swab. In invasion assay, we used 5 × 10^4 cells in Boyden’s chambers with 8 μm polycarbonate membrane (Falcon) pre-coated with growth factor reduced- and phenol red-free Matrigel (Corning). The indicated stimuli were added to the upper and the lower chambers. Cytosine arabinoside (at 50 μM) was included in the cell medium. After 24 h, non-invading cells from the membrane upper surface were removed using a sterile cotton swab. In migration and invasion assays, the membranes were fixed for 20 min in 4% paraformaldehyde, stained with Hoechst (Sigma-Aldrich), removed with forceps from the companion plate and mounted. Migrating and invading cells were scored by fluorescence microscopy, as below described in this section.
(§6) In wound scratch assay, different fields were analysed using DMIRB inverted microscope (Leica) equipped with N-Plan 10 × objective (Leica), as reported. LNCaP organoids were analysed using the same microscope equipped with C-Plan 40 × or HCX PL Fluotar 63 × objectives (Leica). Images were captured using a DFC 450C camera (Leica) and acquired using the Application Suite Software (Leica). They are representative of three different experiments. The relative organoid size was calculated using the same software and expressed as a fold increase over the basal organoid size (measured at 3th day). The wound gap was calculated using Image J Software and expressed as % of the decrease in the wound area. Migrating or invading cells from at least 30 fields/each membrane were scored, using a DMLB (Leica) fluorescent microscope, equipped with HCPL Fluotar 20 × objective.

[6] = test system: 22Rv1 cells; assay: DNA synthesis (BrdU incorporation) in 22Rv1 cells; assay type: cell-based, human; conditions: 10 nM R1881, 18 h, compound 1 μM
Protocol: as §1

[7] = test system: FAK, paxillin; assay: Western blot of FAK activation and paxillin phosphorylation in LNCaP cells; assay type: cell-based, human; conditions: for androgen-elicited FAK activation and paxillin phosphorylation: 10 nM R1881, 10 min; for androgen-elicited FAK activation and paxillin phosphorylation / FAK or paxillin phosphorylation when used alone: compound 1 μM; for FAK or paxillin phosphorylation when used alone: no R1881
Excerpt: as §4

[8] = test system: LNCaP cells; assay: Fluorescent Ca2+ imaging (Fluo 4-AM) in LNCaP cells; assay type: cell-based, human; conditions: for androgen-induced increase of intracellular Ca2+ levels: 10 nM R1881, 240 s, compound 1 μM
Protocol: LNCaP cells in 6 multi-wells were made quiescent and incubated for 60 min at 37 °C with 1 µM 4-Fluo AM (Abcam, ab241082). Cells were washed twice with Hank’s Balanced salt solution (HBSS) to remove any dye non-specifically associated with the cell surface. They were incubated with medium for 30 min to allow complete de-esterification of intracellular AM esters, and then left untreated or treated for 240 s with 10 nM R1881, in the absence or presence of the indicated compounds. Different fields were analyzed using DMIRB Leica (Leica) microscope equipped with C-Plan × 40 or HCX PL Fluotar × 63 objectives (Leica). IF microscopy images were generated using a DFC 450C camera (Leica).

[9] = test system: 22Rv1 cells; assay: Transmigration assay, 22Rv1 cells; assay type: cell-based, human; conditions: 10 nM R1881, compound 1 μM; compared with LNCaP
Protocol: as §2, §3

[10] = test system: LNCaP cells; assay: Transmigration assay in Boyden chamber, LNCaP cells; assay type: cell-based, human; conditions: for androgen-induced cell migration: 10 nM R1881, compound 1 μM; for migration when added alone: compound 1 μM, no hormone
Protocol: as §5, §6

Compound | BrdU incorporation [1] | wound closure [2] | androgen-elicited activation of FAK, paxillin, ERK, RSK and Src [3] | androgen-stimulated BrdU incorporation [4] | androgen-induced invasion [5] | invasion in the absence of hormone [5] | androgen-stimulated BrdU incorporation [6] | androgen-elicited FAK activation and paxillin phosphorylation [7] | FAK or paxillin phosphorylation when used alone [7] | androgen-induced increase of intracellular Ca2+ levels [8] | androgen-induced migration [9] | androgen-induced cell migration [10] | migration when added alone [10] | increase in number of invading cells in Matrigel ([5]; 10 nM R1881 alone) | FAK activation and paxillin phosphorylation ([7]; 10 nM R1881 alone, within 10 min) | intracellular Ca2+ levels ([8]; 10 nM R1881 alone, within 240 s) | increase in number of migrating cells ([10]; 10 nM R1881 alone)
COC(=O)[C@H](Cc1c[nH]c2ccccc12)N(Cc1ccccc1)Cc1ccccc1 [Compound 6] | did not affect | did not modify | impaired at similar extent | significantly inhibited | reversed | negligible effect | significantly inhibited | impaired | did not affect | reduced the androgen effect | Superimposable results | inhibited | leaving unaffected | – | – | – | –
c1ccc(COc2ccc3[nH]cc(CCNCc4ccc(Oc5ccccc5)cc4)c3c2)cc1 [Compound 4] | did not affect | did not modify | impaired at similar extent | significantly inhibited | reversed | negligible effect | significantly inhibited | impaired | did not affect | reduced the androgen effect | Superimposable results | inhibited | leaving unaffected | – | – | – | –
C[C@]1(O)CC[C@H]2[C@@H]3CCC4=CC(=O)CCC4=C3C=C[C@@]21C [Compound R1881, reference compound] | – | – | – | – | – | – | – | – | – | – | – | – | – | 1,6 folds | triggered | increased | ~3 folds
